From publication PMC11571215, “Optimization of Antiproliferative Properties of Triimine Copper(II) Complexes” (Journal of Medicinal Chemistry, 2024) come the findings set out here.

The test system of experiment [1] is HCT116-DoxR 3D spheroids. The experiment is described as follows: MTS cell viability assay in 3D tumor spheroids. The class given is cell-based, human. The following applies: spheroids with 6 days of growth, 48 h of exposure. How it is done: The research on tumor microenvironment (TME) has recently been gaining attention due to its important role in tumor growth, progression, and response to therapy.[57]−[60] Because of this, the development of 3D cancer models that mimic the interactions in the TME and the tumor structure and complexity is of great relevance to cancer research and drug development. […] The MTS assay was performed inHCT116-DoxR 3D spheroids with 6 days of growth (Figure S15 in ESI), followed by exposure to the complexes for 48 h. The results of cell viabilities and respective relative IC50 values calculated are provided in Figure 4 and Table 5, respectively.
HCT116-DoxR cells were seeded at 5 × 10^4 cells/mL in super low Attachment 96-well plates (NunclonSphera U-Shaped-Bottom Microplate, Thermo Fisher Scientific, Waltham, MA, USA) and incubated at 37 °C in a humidified atmosphere with 5% (v/v) CO2, to allow spheroids formation and growth.[60],[105] To perform the cell viability study, two methods were used: the MTS assay and the CellTox assay.
For MTS assay, HCT116DoxR spheroids grown for 6 to 8 days were used. […] The spheroids were further incubated for 4 h and subsequently transferred the medium to a 96-well flat-bottom plate for analysis using the Tecan Infinite M200 microplate reader (Tecan, Männedorf, Switzerland).
On the technique in general: Formazan colour is commonly taken as a measure of viable cells.

For experiment [2], the target named is T1, bovine serum albumin (BSA) (Bos taurus, UniProt P02769).
T1 construct: composed of single polypeptide chains with 583 amino
The experiment is described as follows: Interaction with bovine serum albumin (UV-vis, fluorescence). The class given is binding. The following applies: 24 h, 37 °C; for BSA UV-Visible absorbance change: BSA 20 µM, complexes 10, 25 and 50 µM; for BSA fluorescence quenching: BSA 20 μM, complexes 10-100 µM, excitation 278 nm. How it is done:
All solutions used to perform the BSA interaction assays were diluted in filtered buffer (10 mM phosphate buffer and 150 mM NaCl) pH 7.0, with BSA at a fixed final concentration of 20 μM and the concentrations of the complexes varying from 10 to 100 μM. Control solutions were also prepared, namely, a solution containing only BSA, a solution consisting of BSA + DMSO, and a solution consisting of DMSO only. Solutions were analyzed after 24 h of incubation at 37 °C. UV–visible absorption spectra were acquired using the Evolution 300 UV–vis (Thermo Fisher Scientific, Waltham, MA, USA) in the wavelength range between 245 and 500 nm in quartz cuvettes. The fluorescence of the samples mentioned was analyzed using a Cary Eclipse fluorimeter (VARIAN, California, USA). The BSA molecule was excited at 278 nm (maximum absorption peak), and emission was recorded between 290 and 500 nm. The setup was set at a slow speed (120 nm/min) using 5 nm slits. The absorbance value of the buffer containing DMSO (at the respective percentages) was subtracted from that of each sample.
12. Interaction with Bovine Serum Albumin (BSA)
In the perspective of translating the complexes into clinical practice and considering their administration and distribution in the human body, it is essential to examine their potential interaction with albumin, a protein present in human plasma at high concentrations. In this regard, bovine serum albumin (BSA) was utilized as a model. BSA is the most abundant plasma protein in vertebrates, sharing approximately 76% similarity with human serum albumin (HSA) and composed of single polypeptide chains with 583 amino […]
UV-Visible spectroscopy is an effective method for predicting conformational changes in proteins when interacting with small molecules such as drugs. The interaction of BSA […]
spectroscopy, considering the intrinsic fluorescence of tryptophan residues in BSA. Figure […]
DMSO and BSA in the presence of increasing concentrations of the metallic complexes.
(1 picture or pasted object on this page, not shown here)

T1 sequence (P02769 25-607): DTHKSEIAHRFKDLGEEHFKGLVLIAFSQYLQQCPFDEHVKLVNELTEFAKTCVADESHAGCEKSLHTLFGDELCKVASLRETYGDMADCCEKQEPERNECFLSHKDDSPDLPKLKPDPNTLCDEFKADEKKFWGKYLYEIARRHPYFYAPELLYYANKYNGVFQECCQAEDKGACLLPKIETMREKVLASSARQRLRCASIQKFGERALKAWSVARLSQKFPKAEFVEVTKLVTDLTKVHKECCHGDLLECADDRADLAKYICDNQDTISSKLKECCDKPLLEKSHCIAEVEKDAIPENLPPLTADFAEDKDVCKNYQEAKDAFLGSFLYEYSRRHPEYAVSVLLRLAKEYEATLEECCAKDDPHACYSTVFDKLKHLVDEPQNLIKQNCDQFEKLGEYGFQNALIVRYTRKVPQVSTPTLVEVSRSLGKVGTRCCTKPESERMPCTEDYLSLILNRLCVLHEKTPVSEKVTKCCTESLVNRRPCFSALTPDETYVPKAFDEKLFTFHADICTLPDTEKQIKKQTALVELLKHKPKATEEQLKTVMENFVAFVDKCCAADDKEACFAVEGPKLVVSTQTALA

For orientation: IC50 means the point on the concentration scale where inhibition reaches its midpoint. A higher IC50 goes with a need for much substance. In experiment [1], `[Cl][Cu-3]12([Cl])[n+]3ccccc3-c3cc(-c4cccc5ccccc45)cc([n+]31)-c1cccc[n+]12` [Cu1a] gave an IC50 of 10.1 ± 0.22 µM. In experiment [2], the “BSA UV-Visible absorbance change” value is “hypochromism” and the BSA fluorescence quenching result was “attenuation of BSA fluorescence was observed”.

`[Cl][Cu-3]12([Cl])[n+]3ccccc3-c3cc(-c4ccc5ccccc5c4)cc([n+]31)-c1cccc[n+]12` [Cu1b] came in with an IC50 in experiment [1] of 33.9 ± 0.4 µM. Also, in experiment [2], the “BSA UV-Visible absorbance change” value was “hypochromism” and the BSA fluorescence quenching entry is recorded as “an increased quenching effect was observed”.
